Laboratory results: paper PMC6868852, “Molecular cloning and characterization of a grapevine (Vitis vinifera L.) serotonin N-acetyltransferase (VvSNAT2) gene involved in plant defense” (BMC Genomics, 2019)

System: VvSNAT2
Experiment: HPLC product quantification; Lineweaver-Burk
Assay type: biochemical, Vitis vinifera
Settings: acetyl-CoA 0.5 mM; 100 mM potassium phosphate pH 8.8; 30 min at 45 °C (Fig. 3 legend; Methods print below 30 °C)

## NCCc1c[nH]c2ccc(O)cc12 [serotonin]
  Km: 392 µM
